For orientation: IC50 means the concentration that gives 50% inhibition. A lower IC50 goes with greater potency in that assay.

The results in this text go back to ChEMBL document CHEMBL2424604, “Design, synthesis and QSAR studies of dispiroindole derivatives as new antiproliferative agents” (Eur J Med Chem, 2013).

Structures are written as SMILES.

Common to all, as to format: functional, cell-based
Assay [1] has as its system HepG2. Description: Cytotoxicity against human HepG2 cells after 48 hrs by SRB assay. The following applies: HepG2, 48 h. A general note: In SRB staining, fixed cells bind dye roughly in proportion to their protein.
In assay [2] the test system is HeLa. Description: Cytotoxicity against human HeLa cells after 48 hrs by SRB assay.
The test system of assay [3] is PC-3. In words: Cytotoxicity against human PC3 cells after 48 hrs by SRB assay. As to conditions: PC-3, 48 h.

For `CN1C[C@@H](c2ccc(Cl)cc2Cl)[C@@]2(CCC/C(=C\c3ccc(Cl)cc3Cl)C2=O)[C@@]12C(=O)N(CN1CCOCC1)c1ccccc12`, the IC50 turned out to be 24.9 µM in assay [1], 22.3 µM in assay [2] and 21.9 µM in assay [3].

In the case of `Cc1ccc(/C=C2\CCC[C@]3(C2=O)[C@H](c2ccc(C)cc2)CN(C)[C@]32C(=O)N(CN3CCOCC3)c3ccccc32)cc1`, the IC50 in assay [1] is 21.7 µM; in assay [2], 13.3 µM; in assay [3], 32.9 µM.

`COc1cccc2c1C(=O)c1c(O)c3c(c(O)c1C2=O)C[C@@](O)(C(=O)CO)C[C@@H]3O[C@H]1C[C@H](N)[C@H](O)[C@H](C)O1` [DOXORUBICIN]: the IC50 in assay [2] turned out to be 7.71 µM; in assay [3] it was 8.83 µM.

As for `CN1C[C@@H](c2ccc(F)cc2)[C@@]2(CCC/C(=C\c3ccc(F)cc3)C2=O)[C@@]12C(=O)N(CN1CCOCC1)c1ccccc12`, the IC50 in assay [1] came out at 8.09 µM; in assay [2], 6.96 µM; in assay [3], 19.5 µM.

On to `COc1ccc(/C=C2\CCC[C@]3(C2=O)[C@H](c2ccc(OC)cc2)CN(C)[C@]32C(=O)N(CN3CCOCC3)c3ccccc32)cc1`, for which the IC50 stood at 18.7 µM in assay [1], 18.5 µM in assay [2] and 58.8 µM in assay [3].

With `Cc1ccc(/C=C2\CCC[C@]3(C2=O)[C@H](c2ccc(C)o2)CN(C)[C@]32C(=O)N(CN3CCOCC3)c3ccccc32)o1`, the IC50 in assay [1] amounted to 28.4 µM; in assay [2], 18 µM; in assay [3], 21.2 µM.

With `CN1C[C@@H](c2ccccc2)[C@@]2(CCC/C(=C\c3ccccc3)C2=O)[C@@]12C(=O)N(CN1CCOCC1)c1ccccc12`, the IC50 in assay [1] is 13.3 µM; in assay [2] it was 14.8 µM; in assay [3], 26.7 µM.

Take `CN1C[C@@H](c2cccs2)[C@@]2(CCC/C(=C\c3cccs3)C2=O)[C@@]12C(=O)N(CN1CCOCC1)c1ccccc12`: the IC50 in assay [1] is 30 µM; in assay [2], 27.4 µM; in assay [3] it was 30.1 µM.

With `COc1ccc(/C=C2\CCC[C@]3(C2=O)[C@H](c2ccc(OC)c(OC)c2)CN(C)[C@]32C(=O)N(CN3CCOCC3)c3ccccc32)cc1OC`, the IC50 in assay [1] was determined as 6.99 µM; in assay [2], 10.9 µM; in assay [3], 32 µM.
